Data on three molecules can be found in patent publication US8993309B2, “Predictive marker for topoisomerase I inhibitors” (Boston Medical Center Corporation, priority 2008, dated 2015).

Each structure is given as a SMILES string.

In one assay the test system is GFP-topoI and BRCA1. In words: co-immunostaining of GFP-topoI and BRCA1 after CPT treatment. The assay is classed as cell-based. The conditions noted are these: in response to treatment with CPT.
The subject of the next assay is leukemia L-1210. The conditions noted are these: experimentally transplanted leukemia L-1210 in mice; cited from earlier work.
The target of assay [1] is T1, topoI (Homo sapiens, UniProt P11387).
T1 construct: endogenous in cells
T1 sequence (P11387 1-765): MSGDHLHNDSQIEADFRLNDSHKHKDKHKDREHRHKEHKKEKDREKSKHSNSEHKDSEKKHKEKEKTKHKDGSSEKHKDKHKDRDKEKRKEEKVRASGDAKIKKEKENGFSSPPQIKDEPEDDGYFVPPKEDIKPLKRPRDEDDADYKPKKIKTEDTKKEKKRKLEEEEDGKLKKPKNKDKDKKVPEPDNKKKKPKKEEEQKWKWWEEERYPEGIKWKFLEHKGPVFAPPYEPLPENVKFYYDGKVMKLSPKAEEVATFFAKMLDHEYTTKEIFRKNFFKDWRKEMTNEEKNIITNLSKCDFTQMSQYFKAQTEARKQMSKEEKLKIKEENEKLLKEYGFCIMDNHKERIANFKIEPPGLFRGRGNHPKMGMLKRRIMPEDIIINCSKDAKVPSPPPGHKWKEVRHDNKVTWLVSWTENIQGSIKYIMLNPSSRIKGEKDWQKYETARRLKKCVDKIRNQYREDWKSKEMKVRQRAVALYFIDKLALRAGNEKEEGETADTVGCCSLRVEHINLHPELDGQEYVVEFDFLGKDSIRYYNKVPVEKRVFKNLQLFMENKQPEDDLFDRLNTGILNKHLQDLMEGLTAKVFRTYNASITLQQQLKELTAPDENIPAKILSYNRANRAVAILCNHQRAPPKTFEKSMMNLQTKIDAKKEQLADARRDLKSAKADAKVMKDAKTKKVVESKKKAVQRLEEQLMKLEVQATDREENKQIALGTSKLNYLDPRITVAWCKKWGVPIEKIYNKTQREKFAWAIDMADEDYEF
In words: topoI down-regulation in BRCA1-silenced cells. Format: cell-based. The conditions noted are these: BRCA1-silenced Hela cells.

The next assay has as its system Walker 256 tumor. As to conditions: experimentally transplanted Walker 256 tumor in rats; cited from earlier work.
Assay [2] concerns biosynthesis of nucleic acids. The conditions noted are these: cited from earlier work.
Assay [3] deals with T2, topoI (Mus musculus, UniProt Q04750).
T2 construct: endogenous in cells; host or cells: ScH8 (DNA-PK +/+) and ScSv3 (DNA-PK -/-) mouse embryo fibroblasts
T2 sequence (Q04750 1-767): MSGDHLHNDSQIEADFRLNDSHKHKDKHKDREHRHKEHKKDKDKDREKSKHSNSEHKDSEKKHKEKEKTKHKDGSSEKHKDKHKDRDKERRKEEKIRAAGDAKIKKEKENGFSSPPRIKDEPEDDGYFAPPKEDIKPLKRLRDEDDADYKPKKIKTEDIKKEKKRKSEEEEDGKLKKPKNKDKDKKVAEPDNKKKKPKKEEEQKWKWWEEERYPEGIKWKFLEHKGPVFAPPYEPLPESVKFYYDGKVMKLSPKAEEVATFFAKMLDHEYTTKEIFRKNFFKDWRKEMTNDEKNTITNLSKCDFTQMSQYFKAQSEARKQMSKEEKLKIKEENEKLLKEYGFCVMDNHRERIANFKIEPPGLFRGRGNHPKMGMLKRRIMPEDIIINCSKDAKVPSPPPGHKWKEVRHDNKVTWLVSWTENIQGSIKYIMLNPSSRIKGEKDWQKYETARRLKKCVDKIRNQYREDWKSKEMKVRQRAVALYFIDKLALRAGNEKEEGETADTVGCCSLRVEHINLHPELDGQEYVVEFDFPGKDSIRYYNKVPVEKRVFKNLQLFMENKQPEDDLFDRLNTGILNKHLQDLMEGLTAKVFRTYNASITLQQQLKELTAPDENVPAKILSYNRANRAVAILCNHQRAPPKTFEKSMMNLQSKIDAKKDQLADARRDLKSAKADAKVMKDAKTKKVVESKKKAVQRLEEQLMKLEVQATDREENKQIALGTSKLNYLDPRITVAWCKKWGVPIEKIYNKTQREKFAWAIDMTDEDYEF
The experiment in a line: topoI down-regulation in response to CPT in DNA-PK deficient and efficient cells (anti-topoI immunoblot). Format: cell-based. The method, then:
(§1) Protein levels in FIG. 8A were determined by immuno blot analysis of cell lysate with anti-βactin.
(§2) Tissue Culture: Human cervical carcinoma (HeLa) cells, MCF-7 breast cancer cells, BT-474 breast cancer cells and Mouse embryo fibroblasts (MEF) reconstituted for stable expression of DNA-PK (ScH8) and […] MEF (ScSv3, DNA-PK −/−) were grown and maintained in Dulbecco's Modification of Eagle's Medium containing 10% fetal bovine serum, 2 mM L-Glutamine 100 units/mL of Streptomycin and 100 units/mL of Penicillin.
Cell Synchronization and Drug Treatment. MEF cells were phase-synchronized by serum starvation. Cells were incubated for 30 hours in Dulbecco's Modification of Eagle Medium containing 0.1% fetal bovine serum followed by 16 hour incubation in Medium containing 10% fetal bovine serum. Topo I inhibitor treatment was performed using a 25 μM concentration of Irinotecan (Sigma). Transient transfection of cell lines for BRCA1 and BARD1 expression was performed using the Geneporter 2 transfection kit (GenLantis).
Immunoprecipitation and immunoblot analysis: Cell lysates were prepared for immunoprecipitation and soluble proteins were incubated with anti-BRCA1 or anti-topoI (Topogen, Inc.). The immunoprecipitates were subjected to immunoblotting with anti-BRCA1 or anti-topoI. Antigen-antibody complexes were visualized by enhanced chemiluminescence (ECL detection system, GE, Piscataway, N.J.).
For orientation: A western blot detects proteins with antibodies after separation by electrophoresis.

The subject of the next assay is DNA-PK -/- cells. The experiment in a line: cell death of DNA-PK -/- and DNA-PK +/+ cells in response to CPT. As to conditions: DNA-PK -/- cells compared to DNA-PK +/+ cells, in response to CPT (FIG. 8C). The assay is classed as cell-based, Mouse. As for the experimental part:
as §1, §2

Another assay has as its target T3, DNA-PK (Homo sapiens, UniProt P78527).
T3 construct: endogenous in cells; host or cells: HeLa
In words: CPT induced topoI downregulation in HeLa cells with or without DNA-PK inhibitor (anti-topoI immunoblot). The assay is classed as cell-based. As to conditions: CPT treatment plus DNA-PK inhibitor (FIG. 9). As for the experimental part:
Protein levels were determined by immuno blot analysis of cell lysate with anti-β actin.

A further assay concerns HIV-1. As to conditions: acute and chronic infections, in vitro; cited from earlier work.

As to `CC[C@@]1(O)C(=O)OCc2c1cc1n(c2=O)Cc2cc3ccccc3nc2-1` [CPT, camptothecin], the “localization of GFP-topoI and BRCA1” value with GFP-topoI and BRCA1 is given as “colocalized in DNA repair foci”. The anti-tumor activity entry in the assay on leukemia L-1210 and in the assay with Walker 256 tumor was “potent anti-tumor activity” throughout. The “rate of topoI down-regulation” value on topoI [1] is recorded as “decrease in the rate of topoI down-regulation”. In assay [2], the “inhibitory activity toward the biosynthesis of nucleic acids” value is “strong inhibitory activity”. Further, the “rate of topoI down-regulation in response to CPT” value at topoI [3] (DNA-PK +/+ cells compared with DNA-PK deficient cells) is recorded as “significantly higher rate of topoI down-regulation in DNA-PK +/+ cells”. In addition, at topoI [3] (ScH8 cells (DNA-PK +/+) treated with CPT, six hours), the “degradation of topoI” value is given as “complete degradation”. In addition, at topoI [3] (ScSV3 cells (DNA-PK -/-) treated with CPT, six hours), the topoI remained intact entry is reported as “more than 50%”. In the assay with DNA-PK -/- cells, the “percentage of cell death” value is reported as “higher percentage of cell death”.
Take `O=c1cc(N2CCOCC2)oc2c1ccc1ccccc12` [NU7026]: the “effect on CPT induced topoI downregulation by UPP” value on DNA-PK is “obliterates CTP induced topoI downregulation”.
`CC[C@@]1(O)C(=O)OCc2c1cc1n(c2=O)Cc2cc3c(CN(C)C)c(O)ccc3nc2-1` [Topotecan]: in the assay with HIV-1, the “inhibition of HIV-1 infections” value was “inhibit both acute and chronic HIV-1 infections”.
